Test results: patent US12690589B2, “Herbicidal compositions comprising pyroxasulfone” (BASF SE, priority 2024, dated 2026)

How the values were obtained:
Test in all cases: Post-emergence application in field trials, herbicidal activity (damage scale 0 to 100%)
Assay type in all cases: in vivo
[1] = tested on: Echinochloa crus-galli (ECHCG); details: stage 23-30, height 15-20 cm
Description: (§1) In the examples below, using the method of S. R. Colby (1967) “Calculating synergistic and antagonistic responses of herbicide combinations”, Weeds 15, p. 22ff., the value E, which is expected if the activity of the individual active compounds is only additive, was calculated:
(§2) [formula] • wherein • X=percent activity using active herbicide A at an application rate a; • Y=percent activity using active herbicide B (e.g. pyroxasulfone) at an application rate b; • E=expected activity (in %) by A+B at application rates a+b.
(§3) If the value found experimentally is higher than the value E calculated according to Colby, a synergistic effect is present.
(§4) On field test sites, natural weed infestation or seeded weeds were treated post-emergence of the weeds.
(§5) In the field trials, the weeds were treated as indicated below.
(§6) In the following experiments, the herbicidal activity for the individual herbicidal compositions (solo and mixture applications) was assessed at the indicated days after treatment (DAT). The assessments for the damage on undesired weeds caused by the composition was carried out using a scale from 0 to 100%, compared to the untreated control plants. Here, 0 means no damage and 100 means complete destruction of the plants.
Herbicide A-1 (50 g/l) and pyroxasulfone (85% WG) were, together with addition of 0.5% MSO (methylated seed oil) as adjuvant, formulated in water as distribution medium (water volume 200 l/ha) and sprayed with commercial flat fan nozzles.

[2] = tested on: Lolium multiflorum (LOLMU); details: stage 22-25, height 20-25 cm
Description: as §1, §2
(§7) For 3-component mixtures the synergistic response was calculated as described in: Ferry, Nancy; Stanley, Bruce H.; and Armel, Gregory (2005). “DESIGN AND ANALYSIS OF BIOLOGICAL ASSAYS OF MIXTURES,” Conference on Applied Statistics in Agriculture. https://doi.org/10.4148/2475-7772.1133. According to this publication, the Colby calculation can be generalized to a third mixing partner, Z, employing the following formula: […]
as §3, §4, §5, §6
(§8) Herbicide A-1 (342 g/l) and pyroxasulfone (500 g/l) were, together with addition of 0.25 v/v % MSO (methylated seed oil) as adjuvant, formulated in 200 l/ha water as distribution medium and sprayed with commercial flat fan nozzles.
(§9) Herbicide A-1 (342 g/l), pyroxasulfone (500 g/l) and trifludimoxazin (500 g/l) were, together with addition of 0.25 v/v % MSO (methylated seed oil) as adjuvant, formulated in 200 l/ha water as distribution medium and sprayed with commercial flat fan nozzles.
(§10) Herbicide A-1 (342 g/I), pyroxasulfone (500 g/l) and glyphosate-isopropylammonium (356 g/l) were, together with addition of 0.25 v/v % MSO (methylated seed oil) as adjuvant, formulated in 200 l/ha water as distribution medium and sprayed with commercial flat fan nozzles.
(§11) Herbicide A-1 (342 g/l), pyroxasulfone (500 g/l) and glufosinate-P-ammonium (211 g/l) were, together with addition of 0.25 v/v % MSO (methylated seed oil) as adjuvant, formulated in 200 l/ha water as distribution medium and sprayed with commercial flat fan nozzles.
(§12) Herbicide A-1 (342 g/l), pyroxasulfone (500 g/l) and 2,4-D-choline (456 g/l) were, together with addition of 0.25 v/v % MSO (methylated seed oil) as adjuvant, formulated in 200 l/ha water as distribution medium and sprayed with commercial flat fan nozzles.

Zea mays (ZEAMX) = tested on: Zea mays (ZEAMX)
Description: as §1, §2, §7, §3, §4, §5, §6, §8, §9, §10, §11, §12

[3] = tested on: Setaria verticillata (SETVE); details: stage 21-23, height 8-16 cm
Description: as §1, §2, §7, §3, §4, §5, §6, §8, §9, §10, §11, §12

Hordeum vulgare (HORVW) = details: stage 23-29, height 20-25 cm
Description: as §1, §2, §7, §3, §4, §5, §6, §8, §9, §10, §11, §12

[4] = tested on: Amaranthus retroflexus (AMARE); details: 21 DAT, stage 31-49, height 10-12 cm
Description: as §1, §2, §7, §3, §4, §5, §6, §8, §9, §10, §11, §12

[5] = 7 DAT, g ai/ha A-1 12.5, B 70, C-12 252
[6] = 21 DAT, g ai/ha A-1 12.5, B 70, C-12 252
[7] = 28 DAT, g ai/ha A-1 12.5, B 70, C-12 252
[8] = 7 DAT, g ai/ha A-1 18, B 70, C-12 252
[9] = 7 DAT, g ai/ha A-1 18, B 90, C-12 252
[10] = 21 DAT, g ai/ha A-1 18, B 70, C-12 252
[11] = 21 DAT, g ai/ha A-1 18, B 90, C-12 252
[12] = 28 DAT, g ai/ha A-1 18, B 70, C-12 252
[13] = 28 DAT, g ai/ha A-1 18, B 90, C-12 252

For `CP(=O)(O)CC[C@H](N)C(=O)O.N` [C-12, glufosinate-P-ammonium], the “% Herbicidal activity” value [1, 5] was 70%, the “% Herbicidal activity” value [1, 6] was 60% and the “% Herbicidal activity” value [1, 7] was 60%. The “% Herbicidal activity” value ([1]; Table 8.2, 21 DAT, g ai/ha A-1 18, B 70, C-12 1066) was 10%, the “% Herbicidal activity” value ([1]; Table 8.2, 21 DAT, g ai/ha A-1 18, B 90, C-12 1066) was 10% and the “% Herbicidal activity” value ([1]; Table 8.3, 28 DAT, g ai/ha A-1 18, B 70, C-12 1066) was 10%. The “% Herbicidal activity” value ([1]; Table 8.3, 28 DAT, g ai/ha A-1 18, B 90, C-12 1066) was 10%, the “% Herbicidal activity” value [2, 5] was 50% and the “% Herbicidal activity” value [2, 8] was 50%. For the same compound, the “% Herbicidal activity” value [2, 9] was 50%, the “% Herbicidal activity” value [2, 6] was 30% and the “% Herbicidal activity” value [2, 10] was 30%. For the same compound, the “% Herbicidal activity” value [2, 11] was 30%, the “% Herbicidal activity” value [2, 7] was 30% and the “% Herbicidal activity” value [2, 12] was 30%. For the same compound, the “% Herbicidal activity” value [2, 13] was 30%, the “% Herbicidal activity” value (Zea mays (ZEAMX); 7 DAT, stage 15-16, height 27-33 cm, g ai/ha A-1 12.5, B 70, C-12 252) was 70% and the “% Herbicidal activity” value (Zea mays (ZEAMX); 7 DAT, stage 15-16, height 27-33 cm, g ai/ha A-1 18, B 70, C-12 252) was 70%. The “% Herbicidal activity” value (Zea mays (ZEAMX); 7 DAT, stage 15-16, height 27-33 cm, g ai/ha A-1 18, B 90, C-12 252) was 70%, the “% Herbicidal activity” value (Zea mays (ZEAMX); 21 DAT, stage 15-16, height 27-33 cm, g ai/ha A-1 12.5, B 70, C-12 252) was 60% and the “% Herbicidal activity” value (Zea mays (ZEAMX); 21 DAT, stage 15-16, height 27-33 cm, g ai/ha A-1 18, B 70, C-12 252) was 60%. The “% Herbicidal activity” value (Zea mays (ZEAMX); 21 DAT, stage 15-16, height 27-33 cm, g ai/ha A-1 18, B 90, C-12 252) was 60%, the “% Herbicidal activity” value (Zea mays (ZEAMX); 42 DAT, stage 15-16, height 27-33 cm, g ai/ha A-1 12.5, B 70, C-12 252) was 45% and the “% Herbicidal activity” value (Zea mays (ZEAMX); 42 DAT, stage 15-16, height 27-33 cm, g ai/ha A-1 18, B 70, C-12 252) was 45%. The “% Herbicidal activity” value (Zea mays (ZEAMX); 42 DAT, stage 15-16, height 27-33 cm, g ai/ha A-1 18, B 90, C-12 252) was 45%, the “% Herbicidal activity” value (Zea mays (ZEAMX); Table 8.1, 7 DAT, stage 15-16, height 50-60 cm, g ai/ha A-1 18, B 70, C-12 1066) was 7% and the “% Herbicidal activity” value (Zea mays (ZEAMX); Table 8.1, 7 DAT, stage 15-16, height 50-60 cm, g ai/ha A-1 18, B 90, C-12 1066) was 7%. For the same compound, the “% Herbicidal activity” value [3, 8] was 65%, the “% Herbicidal activity” value [3, 9] was 65% and the “% Herbicidal activity” value [3, 11] was 65%. For the same compound, the “% Herbicidal activity” value ([3]; 42 DAT, g ai/ha A-1 12.5, B 70, C-12 252) was 35%, the “% Herbicidal activity” value ([3]; 42 DAT, g ai/ha A-1 18, B 90, C-12 252) was 35% and the “% Herbicidal activity” value ([3]; Table 8.1, 7 DAT, g ai/ha A-1 18, B 70, C-12 1066) was 25%. For the same compound, the “% Herbicidal activity” value ([3]; Table 8.2, 21 DAT, g ai/ha A-1 12.5, B 70, C-12 1066) was 25%, the “% Herbicidal activity” value ([3]; Table 8.4, 42 DAT, g ai/ha A-1 12.5, B 70, C-12 1066) was 15% and the “% Herbicidal activity” value (Hordeum vulgare (HORVW); [5]) was 40%. The “% Herbicidal activity” value (Hordeum vulgare (HORVW); [8]) was 40%, the “% Herbicidal activity” value (Hordeum vulgare (HORVW); [9]) was 40% and the “% Herbicidal activity” value (Hordeum vulgare (HORVW); [6]) was 30%. For the same compound, the “% Herbicidal activity” value (Hordeum vulgare (HORVW); [10]) was 30%, the “% Herbicidal activity” value (Hordeum vulgare (HORVW); [11]) was 30% and the “% Herbicidal activity” value (Hordeum vulgare (HORVW); [7]) was 30%. For the same compound, the “% Herbicidal activity” value (Hordeum vulgare (HORVW); [12]) was 30%, the “% Herbicidal activity” value (Hordeum vulgare (HORVW); [13]) was 30% and the “% Herbicidal activity” value ([4]; g ai/ha A-1 18, B 70, C-12 252) was 90%. For the same compound, the “% Herbicidal activity” value ([4]; g ai/ha A-1 18, B 90, C-12 252) was 90%.
